According to patent US10590086B2, “Pharmaceutical compound” (IOmet Pharma Ltd., priority 2014, dated 2020):

Key:
TDO = TDO (Homo sapiens, UniProt P48775); assay: A172 kynurenine cell-based assay; set-up: This assay utilised cancer cells which expressed either TDO or IDO; endogenous in cells; host or cells: A172 (human glioblastoma); settings: A172 human glioblastoma cells, 48 hours, 500 μM L-tryptophan; read-out: A172 Kynurenine cell based assay pIC50 (converted)
Method: (§1) Exemplary compounds of the invention were prepared, and tested to determine their effect as TDO and/or IDO inhibitors. Two different assays were employed: 1. a cell-based assay for detecting the effect of test compounds on kynurenine production in two different cancer cell types. This assay utilised cancer cells which expressed either TDO or IDO and as such was used as a means of testing compound activity at these two enzymes in a cell-based context. 2. a TDO and IDO biochemical coupled assay which utilised recombinantly produced and purified TDO and IDO enzymes in combination with the enzyme formamidase. This coupled enzyme system allowed conversion of N-formylkynurenine produced by TDO or IDO activity to kynurenine which was then quantified by fluorescence following addition of Erhlich's Reagent The protocols for these are set out below.
(§2) Cell Based Assay for Detection of Kynurenine Produced by TDO and/or IDO
(§3) A172 (human glioblastoma) and SKOV3 (human ovarian adenocarcinoma) cells were seeded in a 96 well plate at 30,000 or 40,000 cells per well respectively in phenol red-free RPMI supplemented with 10% FCS, 2 mM L-glutamine and 500 μM L-tryptophan. IDO expression was induced in the SKOV3 cells by the addition of 500 ng/ml IFN-γ. Cells were incubated at 37° C. with or without the addition of test compound. After 48 hours, the cells were removed by centrifugation and Erhlich's reagent was added to the supernatant. The Erhlich's reagent was incubated for 5 minutes before the absorbance was read at 490 nm.

IDO = IDO (Homo sapiens, UniProt P14902); assay: SKOV3 kynurenine cell-based assay (IDO induced by IFN-γ); set-up: IDO expression was induced in the SKOV3 cells by the addition of 500 ng/ml IFN-γ; endogenous in cells; host or cells: SKOV3 (human ovarian adenocarcinoma), induced with IFN-γ; settings: SKOV3 human ovarian adenocarcinoma cells, 500 ng/ml IFN-γ, 48 hours, 500 μM L-tryptophan; read-out: SKOV3 Kynurenine cell based assay pIC50 (converted)
Method: as §1, §2, §3

Chain of TDO (P48775 whole entry): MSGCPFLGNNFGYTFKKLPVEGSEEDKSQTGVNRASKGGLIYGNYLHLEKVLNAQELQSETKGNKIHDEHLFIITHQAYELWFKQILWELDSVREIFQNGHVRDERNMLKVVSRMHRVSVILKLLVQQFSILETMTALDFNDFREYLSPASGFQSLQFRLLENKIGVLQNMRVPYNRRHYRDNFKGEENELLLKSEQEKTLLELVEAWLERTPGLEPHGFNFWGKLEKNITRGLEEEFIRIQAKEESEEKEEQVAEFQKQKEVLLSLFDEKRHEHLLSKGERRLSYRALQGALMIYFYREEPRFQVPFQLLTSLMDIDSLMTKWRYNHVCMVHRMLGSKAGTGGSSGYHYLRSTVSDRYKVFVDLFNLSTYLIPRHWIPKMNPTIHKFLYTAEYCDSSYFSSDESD
Chain of IDO (P14902 whole entry): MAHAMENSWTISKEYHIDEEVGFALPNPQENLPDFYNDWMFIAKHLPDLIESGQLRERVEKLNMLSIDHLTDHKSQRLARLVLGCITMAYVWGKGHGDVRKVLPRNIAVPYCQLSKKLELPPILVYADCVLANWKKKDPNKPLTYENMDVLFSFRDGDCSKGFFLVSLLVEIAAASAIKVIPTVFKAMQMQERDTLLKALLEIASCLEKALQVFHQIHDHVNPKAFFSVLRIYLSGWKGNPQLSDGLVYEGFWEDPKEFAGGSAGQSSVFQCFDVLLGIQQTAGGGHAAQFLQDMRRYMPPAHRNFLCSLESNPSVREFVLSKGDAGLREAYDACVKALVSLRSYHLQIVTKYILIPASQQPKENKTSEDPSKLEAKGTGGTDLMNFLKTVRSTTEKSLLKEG

Row | IC50 (TDO) [µM] | IC50 (IDO) [µM] | SMILES
1 | 3.24 to 31.6 | > 100 | CC(=O)N1CCN(c2cc(C(C)C)cc3[nH]ncc23)CC1 [Compound 68]
2 | 3.24 to 31.6 | 32.4 to 100 | CS(=O)(=O)c1ccc(Nc2cc(Cl)cc3[nH]ncc23)cc1 [Compound 180]
3 | < 3.16 | 3.24 to 31.6 | CS(=O)(=O)N1CCCN(c2cc(Cl)cc3[nH]ncc23)CC1 [Compound 72]
4 | > 100 | 32.4 to 100 | Cc1ccc(C2CCN(S(C)(=O)=O)CC2)c2cn[nH]c12 [Compound 39]
5 | 3.24 to 31.6 | 32.4 to 100 | CC(=O)N1CC2CC1CN2c1cc(Cl)cc2[nH]ncc12 (stereo not shown) [Compound 201]
6 | < 3.16 | < 3.16 | CC(=O)N1CCN(c2cc(Cl)cc3[nH]ncc23)CC1(C)C [Compound 46]
7 | 3.24 to 31.6 | > 100 | CC(=O)N1CCN(c2cc(C3CC3)cc3[nH]ncc23)CC1 [Compound 121]
8 | 3.24 to 31.6 | > 100 | CC(=O)N1CCN(c2cc(F)cc3[nH]ncc23)CC1 [Compound 51]
9 | < 3.16 | 32.4 to 100 | Cc1cc(N2CCN(S(C)(=O)=O)CC2)c2cn[nH]c2c1 [Compound 31]
10 | < 3.16 | 3.24 to 31.6 | CC(=O)N1CCC(Oc2cc(Cl)cc3[nH]ncc23)CC1 [Compound 160]
11 | < 3.16 | 3.24 to 31.6 | CC(=O)N1[C@H](C)CN(c2cc(Cl)cc3[nH]ncc23)C[C@@H]1C [Compound 113]
12 | < 3.16 | 32.4 to 100 | O=C(C1CC1)N1CCC(c2cc(Cl)cc3[nH]ncc23)CC1 [Compound 165]
13 | < 3.16 | 3.24 to 31.6 | CCCS(=O)(=O)N1CCN(c2cc(Cl)cc3[nH]ncc23)CC1 [Compound 63]
14 | 3.24 to 31.6 | 32.4 to 100 | CN(C)C(=O)CN1CCN(c2cc(Cl)cc3[nH]ncc23)CC1 [Compound 65]
15 | < 3.16 | 3.24 to 31.6 | C[C@@H]1CN(S(C)(=O)=O)CCN1c1cc(C(F)(F)F)cc2[nH]ncc12 [Compound 208]
16 | < 3.16 | 3.24 to 31.6 | C[C@H]1CN(S(C)(=O)=O)CCN1c1cc(Cl)cc2[nH]ncc12 [Compound 200]
17 | 3.24 to 31.6 | 32.4 to 100 | CS(=O)(=O)N1CCN(c2cc(-c3ccccc3)cc3[nH]ncc23)CC1 [Compound 33]
18 | > 100 | 32.4 to 100 | COCCS(=O)(=O)N1CCN(c2cccc3[nH]ncc23)CC1 [Compound 23]
19 | < 3.16 | 3.24 to 31.6 | CC(C)C(=O)N1CCN(c2cc(Cl)cc3[nH]ncc23)CC1 [Compound 108]

Row | IC50 (TDO) [µM] | IC50 (IDO) [µM] | SMILES
20 | < 3.16 | 3.24 to 31.6 | O=S(=O)(C1CCCC1)N1CCC(c2cc(Cl)cc3[nH]ncc23)CC1 [Compound 143]
21 | 3.24 to 31.6 | > 100 | OCCc1cc(Cl)cc2[nH]ncc12 [Compound 152]
22 | < 3.16 | 3.24 to 31.6 | NC(=O)N1CCC(c2cc(Cl)cc3[nH]ncc23)CC1 [Compound 168]
23 | < 3.16 | 3.24 to 31.6 | CCC(=O)N1CCN(c2cc(Cl)cc3[nH]ncc23)CC1 [Compound 109]
24 | < 3.16 | 3.24 to 31.6 | NC(=O)N1CCN(c2cc(Cl)cc3[nH]ncc23)CC1 [Compound 110]
25 | 3.24 to 31.6 | 32.4 to 100 | CS(=O)(=O)N1CCC(Oc2cccc3[nH]ncc23)CC1 [Compound 52]
26 | 3.24 to 31.6 | > 100 | OCCNc1cc(Cl)cc2[nH]ncc12 [Compound 142]
27 | < 3.16 | 3.24 to 31.6 | CNS(=O)(=O)N1CCC(c2cc(Cl)cc3[nH]ncc23)CC1 [Compound 172]
28 | < 3.16 | 3.24 to 31.6 | O=S(=O)(c1ccccc1)N1CCN(c2cc(Cl)cc3[nH]ncc23)CC1 [Compound 55]
29 | < 3.16 | 3.24 to 31.6 | Clc1cc(N2CCN(c3ccccc3)CC2)c2cn[nH]c2c1 [Compound 92]
30 | 32.4 to 100 | > 100 | CC(=O)N1CCN(c2cc(C3CCCC3)cc3[nH]ncc23)CC1 [Compound 139]
31 | < 3.16 | 3.24 to 31.6 | CNS(=O)(=O)N1CCN(c2cc(Cl)cc3[nH]ncc23)CC1 [Compound 114]
32 | 3.24 to 31.6 | > 100 | CN1CC2CN(c3cccc4[nH]ncc34)CCN2C1=O (stereo not shown) [Compound 47]
33 | < 3.16 | 3.24 to 31.6 | CS(=O)(=O)N1CC=C(c2cc(Cl)cc3[nH]ncc23)CC1 [Compound 77]
34 | < 3.16 | > 100 | CC(=O)N1[C@H](C)CN(c2cc(Cl)cc3[nH]ncc23)C[C@H]1C [Compound 103]
35 | > 100 | 32.4 to 100 | Cn1ncc2c(N3CCN(S(C)(=O)=O)C(C)(C)C3)cc(Cl)cc21 [Compound 105]
36 | < 3.16 | 3.24 to 31.6 | O=S(=O)(Cc1ccccc1)N1CCC(c2cc(Cl)cc3[nH]ncc23)CC1 [Compound 115]
37 | > 100 | 32.4 to 100 | COCCn1ncc2c(OC3CCN(S(C)(=O)=O)CC3)cc(Cl)cc21 [Compound 162]
38 | 3.24 to 31.6 | 3.24 to 31.6 | CC(=O)N1CCN(c2cc(C(C)C)cc3[nH]ncc23)CC1(C)C [Compound 147]

Further lines, the compound ahead of its results:

Row | SMILES | IC50 (TDO) [µM] | IC50 (IDO) [µM]
39 | O=C(CO)N1CCC(c2cc(Cl)cc3[nH]ncc23)CC1 [Compound 167] | < 3.16 | 3.24 to 31.6
40 | O=S(=O)(Cc1ccccc1)N1CCN(c2cccc3[nH]ncc23)CC1 [Compound 13] | 3.24 to 31.6 | 32.4 to 100
41 | CS(=O)(=O)N1CC2CC1CN2c1cc(Cl)cc2[nH]ncc12 (stereo not shown) [Compound 202] | < 3.16 | 32.4 to 100
42 | O=C(N1CCN(c2cc(Cl)cc3[nH]ncc23)CC1)C1(O)CC1 [Compound 116] | < 3.16 | 3.24 to 31.6
43 | O=C(CO)N1CCN(c2cc(Cl)cc3[nH]ncc23)CC1 [Compound 129] | < 3.16 | 3.24 to 31.6
44 | CS(=O)(=O)NC1CCN(c2cc(Cl)cc3[nH]ncc23)C1 (stereo not shown) [Compound 193] | < 3.16 | 3.24 to 31.6
45 | CN(CC1CCN(c2cc(Cl)cc3[nH]ncc23)CC1)S(C)(=O)=O [Compound 130] | < 3.16 | 3.24 to 31.6
46 | C[C@@H]1CN(c2cc(Cl)cc3[nH]ncc23)C[C@@H](C)N1S(C)(=O)=O [Compound 102] | < 3.16 | 3.24 to 31.6
47 | CC(=O)N1CCN(c2cc(C3CCCC3)cc3[nH]ncc23)CC1(C)C [Compound 149] | 3.24 to 31.6 | 3.24 to 31.6
48 | CS(=O)(=O)N1CCN(c2cc(C#N)cc3[nH]ncc23)CC1 [Compound 194] | 3.24 to 31.6 | 3.24 to 31.6
49 | CN1CCN(c2cc(Cl)cc3[nH]ncc23)CC1 [Compound 95] | 3.24 to 31.6 | > 100
50 | CC1CN(c2cccc3[nH]ncc23)CCN1S(C)(=O)=O (stereo not shown) [Compound 29] | 3.24 to 31.6 | 32.4 to 100
51 | COc1cc(N2CCN(S(C)(=O)=O)CC2)c2cn[nH]c2c1 [Compound 69] | 3.24 to 31.6 | > 100
52 | CS(=O)(=O)N1CCN(c2cc(C3CCCC3)cc3[nH]ncc23)CC1 [Compound 131] | > 100 | 32.4 to 100
53 | CS(=O)(=O)NC1CCC(c2cc(Cl)cc3[nH]ncc23)CC1 (stereo not shown) [Compound 203] | < 3.16 | 3.24 to 31.6
54 | CC(=O)N1CCN(c2cc(C(F)(F)F)cc3[nH]ncc23)CC1 [Compound 48] | < 3.16 | 3.24 to 31.6
55 | COc1cc(N2CCN(C(C)=O)CC2)c2cn[nH]c2c1 [Compound 70] | 3.24 to 31.6 | > 100
56 | CS(=O)(=O)N1CCC(c2cc(N3CCOCC3)cc3[nH]ncc23)CC1 [Compound 206] | 3.24 to 31.6 | > 100
57 | CS(=O)(=O)N1CCCN(c2cccc3[nH]ncc23)CC1 [Compound 60] | 3.24 to 31.6 | > 100
58 | O=C(C1COC1)N1CCC(c2cc(Cl)cc3[nH]ncc23)CC1 [Compound 205] | < 3.16 | > 100
59 | COCC(=O)N1CCC(c2cc(Cl)cc3[nH]ncc23)CC1 [Compound 176] | < 3.16 | 3.24 to 31.6
60 | CC(=O)Nc1cccc2[nH]ncc12 [Compound 6] | 32.4 to 100 | > 100
61 | CN(C)S(=O)(=O)N1CCC(c2cc(Cl)cc3[nH]ncc23)CC1 [Compound 173] | < 3.16 | 3.24 to 31.6
62 | CS(=O)(=O)N1CCC(Oc2cc(Cl)cc3c2cnn3CCO)CC1 [Compound 163] | > 100 | 32.4 to 100
63 | CNS(=O)(=O)N1CCN(c2cccc3[nH]ncc23)CC1 [Compound 24] | 3.24 to 31.6 | 32.4 to 100
64 | CS(=O)(=O)N1CCN(c2cc(Br)cc3[nH]ncc23)CC1 [Compound 96] | < 3.16 | 3.24 to 31.6
65 | CN1C(=O)NC(=O)C12CCN(c1cc(Cl)cc3[nH]ncc13)CC2 [Compound 184] | < 3.16 | 3.24 to 31.6
